Results: ChEMBL document CHEMBL5120948, “Ynamide Electrophile for the Profiling of Ligandable Carboxyl Residues in Live Cells and the Development of New Covalent Inhibitors” (J Med Chem, 2022)
pIC50: −log10 of the molar value. The source made the active and inactive calls. The rule behind the calls is not given here.

Legend:
[1] = target: T1, Albumin (Bos taurus, UniProt P02769); test: Binding affinity to bovine serum albumin assessed as increase in fluorescence intensity at 10 uM measured after 4 hrs by TAMRA-N3 based In-gel fluorescence scanning analysis; conditions: cattle
[2] = target: Epidermal growth factor receptor (Homo sapiens, UniProt P00533, L858R); test: Inhibition of EGFR L858R mutant (unknown origin) using peptide substrate by FRET assay
[3] = system: BaF3; test: Growth inhibition of mouse BaF3 cells harbouring EGFR L858R mutant incubated for 72 hrs by CCK8 assay; format: functional, cell-based; conditions: BaF3, 72 h
[4] = Growth inhibition of mouse Ba/F3 EGFR cells incubated for 72 hrs by CCK8 assay; format: functional, cell-based
[5] = system: NCI-H3255; test: cells; format: functional, cell-based; conditions: Homo sapiens, NCI-H3255, 72 h
Description: Growth inhibition of human NCI-H3255 cells harbouring EGFR L858R mutant incubated for 72 hrs by CCK8 assay

[6] = system: A549; test: cells; format: functional, cell-based; conditions: Homo sapiens, A549, 72 h
Description: Growth inhibition of human A549 cells expressing EGFR incubated for 72 hrs by CCK8 assay

[7] = system: Epidermal growth factor receptor (Homo sapiens), P00533 [L858R]; test: Binding affinity to EGFR L858R mutant in human NCI-H3255 cells at 10 uM incubated for 8 hrs by pull-down/Western blot analysis; format: cell-based
[8] = system: Epidermal growth factor receptor (Homo sapiens), P04626+P00533+Q15303+P21860 [L858R]; test: Binding affinity to EGFR L858R mutant in mouse BaF3 cells at 10 uM incubated for 8 hrs by pull-down/Western blot analysis; format: cell-based
[9] = system: Epidermal growth factor receptor (Homo sapiens), P00533 [L858R]; test: Binding affinity to EGFR L858R mutant in human NCI-H3255 cells assessed as increase in thermal stability at 0.5 uM incubated for 3 hrs by cellular thermal shift assay; format: cell-based
[10] = system: NCI-H3255; test: Inhibition of colony formation in human NCI-H3255 cells at 1.1 uM by Giemsa staining based assay; format: functional, cell-based
[11] = target: Epidermal growth factor receptor (Homo sapiens) (UniProt P00533); test: Inhibition of EGFR phosphorylation in human NCI-H3255 cells at 0.22 to 20 uM; format: cell-based; conditions: dose 0.22-20 µM
[12] = target: Epidermal growth factor receptor (Homo sapiens) (UniProt P00533); test: Inhibition of EGFR in human NCI-H3255 cells assessed as decrease in AKT phosphorylation level at 0.22 to 20 uM; format: cell-based; conditions: dose 0.22-20 µM
[13] = target: Epidermal growth factor receptor (Homo sapiens) (UniProt P00533); test: Inhibition of EGFR in human NCI-H3255 cells assessed as decrease in ERK phosphorylation level at 0.22 to 20 uM; format: cell-based; conditions: dose 0.22-20 µM
[14] = target: ATP-dependent translocase ABCB1 (Homo sapiens, UniProt P08183); test: Binding affinity to MDR1 in human HepG2 cells at 10 uM incubated for 8 hrs by pull-down/LC-MS/MS analysis; format: cell-based; conditions: hepg2, 8 h
[15] = target: Leucine-rich PPR motif-containing protein, mitochondrial (Homo sapiens) (UniProt P42704); test: Binding affinity to LPPRC in human HepG2 cells at 10 uM incubated for 8 hrs by pull-down/LC-MS/MS analysis; format: cell-based
[16] = target: Glutathione S-transferase 3, mitochondrial (Homo sapiens) (UniProt O14880); test: Binding affinity to MGST3 in human HepG2 cells at 10 uM incubated for 8 hrs by pull-down/LC-MS/MS analysis; format: cell-based
[17] = target: Ubiquitin-like modifier-activating enzyme 1 (Homo sapiens) (UniProt P22314); test: Binding affinity to UBA1 in human HepG2 cells at 10 uM incubated for 8 hrs by pull-down/LC-MS/MS analysis; format: cell-based
[18] = system: NCI-H3255; test: Inhibition of colony formation in human NCI-H3255 cells at 10 uM by Giemsa staining based assay; format: functional
[19] = Stability of the compound in DMSO/H2O solution measured after 7 days by 1H-NMR analysis; format: physicochemical; conditions: 168 h; time 7 day
[20] = Binding affinity to glutamic acid in aqueous solution measured within 3 hrs by HPLC analysis
[21] = target: T1, Albumin; test: Binding affinity to bovine serum albumin assessed as increase in fluorescence intensity at 5 uM measured after 30 mins by TAMRA-N3 based In-gel fluorescence scanning analysis; conditions: cattle, 0.5 h
[22] = target: T1, Albumin; test: Binding affinity to bovine serum albumin assessed as increase in fluorescence intensity at 10 uM measured after 4 hrs in presence of N,4-Dimethyl-N-(phenylethynyl)benzenesulfonamide by TAMRA-N3 based In-gel fluorescence scanning analysis; conditions: cattle
[23] = species: Homo sapiens; test: Binding affinity to beta-amylase (unknown origin) measured after 30 mins by TAMRA-N3 based In-gel fluorescence scanning analysis; conditions: dose 5-50 µM
[24] = target: Catalase (Homo sapiens) (UniProt P04040); test: Binding affinity to catalase (unknown origin) measured after 30 mins by TAMRA-N3 based In-gel fluorescence scanning analysis; conditions: dose 5-50 µM
[25] = system: GTPase KRas (Homo sapiens), P01116 [G12D]; test: Binding affinity to KRAS G12D mutant (unknown origin) measured after 30 mins by TAMRA-N3 based In-gel fluorescence scanning analysis; conditions: dose 5-50 µM
[26] = target: Aldehyde dehydrogenase 1A1 (Homo sapiens) (UniProt P00352); test: Binding affinity to ALDH1 in human HepG2 cells at 100 uM incubated for 8 hrs by pull-down/Western blot analysis; format: cell-based
[27] = target: Aldehyde dehydrogenase, mitochondrial (Homo sapiens) (UniProt P05091); test: Binding affinity to ALDH2 in human HepG2 cells at 100 uM incubated for 8 hrs by pull-down/Western blot analysis; format: cell-based
[28] = target: Dual specificity mitogen-activated protein kinase kinase 2 (Homo sapiens) (UniProt P36507); test: Binding affinity to MEK2 in human HepG2 cells at 100 uM incubated for 8 hrs by pull-down/Western blot analysis; format: cell-based
[29] = target: Delta(3,5)-Delta(2,4)-dienoyl-CoA isomerase, mitochondrial (Homo sapiens) (UniProt Q13011); test: Binding affinity to ECH1 in human HepG2 cells at 100 uM incubated for 8 hrs by pull-down/Western blot analysis; format: cell-based
[30] = system: HepG2; test: Binding affinity to G3P in human HepG2 cells at 100 uM incubated for 8 hrs by pull-down/Western blot analysis; format: cell-based
[31] = target: Dual specificity mitogen-activated protein kinase kinase 2 (Homo sapiens) (UniProt P36507); test: Stabilization of MEK2 in human HepG2 cells assessed as increase in thermal stability at 50 uM incubated for 3 hrs by cellular thermal shift assay; format: cell-based
[32] = system: HepG2; test: Inhibition of ERK phosphorylation in human HepG2 cells at 5 to 40 uM by Western blot analysis; format: cell-based; conditions: dose 5-40 µM

T1 sequence (P02769 whole entry): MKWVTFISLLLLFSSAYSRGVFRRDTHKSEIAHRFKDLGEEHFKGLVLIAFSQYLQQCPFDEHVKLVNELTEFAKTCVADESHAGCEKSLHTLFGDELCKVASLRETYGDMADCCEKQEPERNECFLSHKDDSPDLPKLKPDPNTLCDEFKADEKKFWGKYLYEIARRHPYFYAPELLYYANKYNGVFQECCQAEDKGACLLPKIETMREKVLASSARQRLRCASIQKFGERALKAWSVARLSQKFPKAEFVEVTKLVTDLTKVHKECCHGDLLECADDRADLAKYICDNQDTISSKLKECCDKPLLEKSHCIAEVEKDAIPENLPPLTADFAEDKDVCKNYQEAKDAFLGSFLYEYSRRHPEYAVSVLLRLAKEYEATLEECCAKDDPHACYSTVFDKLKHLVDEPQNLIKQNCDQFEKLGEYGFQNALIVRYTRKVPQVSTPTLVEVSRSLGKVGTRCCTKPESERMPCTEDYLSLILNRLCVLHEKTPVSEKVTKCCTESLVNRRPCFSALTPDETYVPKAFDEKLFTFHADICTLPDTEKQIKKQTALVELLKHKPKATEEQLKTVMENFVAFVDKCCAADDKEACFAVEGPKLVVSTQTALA
Sequence of Dual specificity mitogen-activated protein kinase kinase 2 (Homo sapiens) (P36507 whole entry): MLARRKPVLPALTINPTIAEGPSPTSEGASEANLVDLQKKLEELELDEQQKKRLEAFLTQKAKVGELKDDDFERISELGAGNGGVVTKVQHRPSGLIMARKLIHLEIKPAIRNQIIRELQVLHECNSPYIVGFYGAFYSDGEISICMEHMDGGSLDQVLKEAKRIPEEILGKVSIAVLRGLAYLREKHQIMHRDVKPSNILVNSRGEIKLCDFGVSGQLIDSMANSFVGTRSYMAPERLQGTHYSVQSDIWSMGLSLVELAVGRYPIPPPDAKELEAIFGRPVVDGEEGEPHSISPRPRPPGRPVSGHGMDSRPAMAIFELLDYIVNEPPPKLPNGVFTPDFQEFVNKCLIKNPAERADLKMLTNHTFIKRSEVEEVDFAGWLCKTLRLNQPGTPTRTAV
Sequence of ATP-dependent translocase ABCB1 (P08183 whole entry): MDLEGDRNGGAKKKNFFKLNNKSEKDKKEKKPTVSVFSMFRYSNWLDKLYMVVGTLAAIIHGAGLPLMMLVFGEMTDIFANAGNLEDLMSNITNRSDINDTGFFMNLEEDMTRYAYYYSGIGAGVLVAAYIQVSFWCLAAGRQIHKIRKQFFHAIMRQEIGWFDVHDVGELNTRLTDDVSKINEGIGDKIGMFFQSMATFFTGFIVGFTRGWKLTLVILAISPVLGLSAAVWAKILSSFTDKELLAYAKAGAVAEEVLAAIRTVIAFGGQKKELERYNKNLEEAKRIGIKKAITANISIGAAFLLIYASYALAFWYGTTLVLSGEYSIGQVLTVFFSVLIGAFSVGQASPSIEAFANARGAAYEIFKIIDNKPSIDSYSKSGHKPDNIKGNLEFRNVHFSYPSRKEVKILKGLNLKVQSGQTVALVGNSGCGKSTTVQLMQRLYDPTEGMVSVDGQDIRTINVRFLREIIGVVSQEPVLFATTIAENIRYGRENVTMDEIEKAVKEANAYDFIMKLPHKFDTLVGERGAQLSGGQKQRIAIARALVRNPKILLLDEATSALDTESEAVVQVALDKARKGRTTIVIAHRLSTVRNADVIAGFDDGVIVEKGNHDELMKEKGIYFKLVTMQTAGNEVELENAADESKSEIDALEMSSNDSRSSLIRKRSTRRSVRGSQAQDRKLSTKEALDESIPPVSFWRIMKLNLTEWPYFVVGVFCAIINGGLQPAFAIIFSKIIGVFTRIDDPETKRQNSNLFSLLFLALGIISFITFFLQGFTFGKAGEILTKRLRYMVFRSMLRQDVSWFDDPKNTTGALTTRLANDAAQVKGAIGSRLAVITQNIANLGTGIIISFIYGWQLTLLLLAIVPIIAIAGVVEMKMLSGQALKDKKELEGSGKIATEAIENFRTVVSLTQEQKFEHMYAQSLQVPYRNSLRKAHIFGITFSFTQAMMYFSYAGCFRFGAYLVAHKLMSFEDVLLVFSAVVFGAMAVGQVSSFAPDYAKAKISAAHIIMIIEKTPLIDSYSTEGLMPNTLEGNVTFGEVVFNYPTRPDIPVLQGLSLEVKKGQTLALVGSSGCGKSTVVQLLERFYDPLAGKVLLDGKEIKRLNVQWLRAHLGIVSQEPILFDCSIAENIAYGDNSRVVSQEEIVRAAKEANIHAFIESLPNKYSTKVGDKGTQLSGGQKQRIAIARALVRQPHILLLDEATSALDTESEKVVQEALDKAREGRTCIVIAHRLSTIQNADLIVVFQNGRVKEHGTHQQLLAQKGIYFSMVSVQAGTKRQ
Sequence of Catalase (Homo sapiens) (P04040 whole entry): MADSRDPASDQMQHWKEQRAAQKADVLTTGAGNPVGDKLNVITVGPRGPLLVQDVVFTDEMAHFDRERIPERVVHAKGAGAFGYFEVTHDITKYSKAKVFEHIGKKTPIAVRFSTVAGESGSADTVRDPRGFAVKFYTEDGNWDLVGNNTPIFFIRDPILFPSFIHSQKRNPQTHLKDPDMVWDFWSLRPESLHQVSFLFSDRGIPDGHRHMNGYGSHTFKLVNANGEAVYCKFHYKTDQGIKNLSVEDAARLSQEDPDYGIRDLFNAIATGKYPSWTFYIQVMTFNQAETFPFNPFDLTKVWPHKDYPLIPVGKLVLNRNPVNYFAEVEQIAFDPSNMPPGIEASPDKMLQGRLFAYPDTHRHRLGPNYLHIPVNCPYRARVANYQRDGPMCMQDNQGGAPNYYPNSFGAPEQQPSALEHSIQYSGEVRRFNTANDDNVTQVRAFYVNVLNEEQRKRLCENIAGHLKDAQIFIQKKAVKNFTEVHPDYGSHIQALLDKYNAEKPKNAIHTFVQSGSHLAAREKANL
Sequence of Glutathione S-transferase 3, mitochondrial (Homo sapiens) (O14880 whole entry): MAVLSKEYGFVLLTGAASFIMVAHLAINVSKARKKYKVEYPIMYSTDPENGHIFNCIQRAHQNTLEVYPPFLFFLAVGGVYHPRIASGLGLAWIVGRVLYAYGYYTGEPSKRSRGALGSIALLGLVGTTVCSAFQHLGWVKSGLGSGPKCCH
Sequence of Aldehyde dehydrogenase, mitochondrial (Homo sapiens) (P05091 whole entry): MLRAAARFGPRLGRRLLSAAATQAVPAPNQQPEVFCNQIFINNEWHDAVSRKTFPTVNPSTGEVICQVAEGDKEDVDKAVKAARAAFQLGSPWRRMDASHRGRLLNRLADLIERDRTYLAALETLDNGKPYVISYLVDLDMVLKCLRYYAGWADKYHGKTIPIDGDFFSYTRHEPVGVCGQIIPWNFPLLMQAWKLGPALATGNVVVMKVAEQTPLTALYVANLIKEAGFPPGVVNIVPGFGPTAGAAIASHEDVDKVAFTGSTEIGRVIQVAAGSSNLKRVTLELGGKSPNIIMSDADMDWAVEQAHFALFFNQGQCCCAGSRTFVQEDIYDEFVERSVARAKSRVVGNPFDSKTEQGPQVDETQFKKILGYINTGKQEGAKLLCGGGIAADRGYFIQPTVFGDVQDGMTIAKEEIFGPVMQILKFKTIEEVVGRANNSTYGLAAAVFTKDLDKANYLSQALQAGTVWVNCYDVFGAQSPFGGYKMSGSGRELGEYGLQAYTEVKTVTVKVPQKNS
Sequence of Delta(3,5)-Delta(2,4)-dienoyl-CoA isomerase, mitochondrial (Homo sapiens) (Q13011 whole entry): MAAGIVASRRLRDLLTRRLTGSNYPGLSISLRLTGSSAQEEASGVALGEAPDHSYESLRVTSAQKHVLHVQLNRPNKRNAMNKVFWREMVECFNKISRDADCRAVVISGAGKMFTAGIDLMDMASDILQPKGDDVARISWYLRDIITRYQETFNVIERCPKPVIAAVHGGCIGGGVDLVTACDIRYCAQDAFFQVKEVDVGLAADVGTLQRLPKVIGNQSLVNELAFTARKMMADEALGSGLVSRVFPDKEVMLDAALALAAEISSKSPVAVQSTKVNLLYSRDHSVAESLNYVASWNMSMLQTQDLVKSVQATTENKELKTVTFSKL
Sequence of Ubiquitin-like modifier-activating enzyme 1 (Homo sapiens) (P22314 whole entry): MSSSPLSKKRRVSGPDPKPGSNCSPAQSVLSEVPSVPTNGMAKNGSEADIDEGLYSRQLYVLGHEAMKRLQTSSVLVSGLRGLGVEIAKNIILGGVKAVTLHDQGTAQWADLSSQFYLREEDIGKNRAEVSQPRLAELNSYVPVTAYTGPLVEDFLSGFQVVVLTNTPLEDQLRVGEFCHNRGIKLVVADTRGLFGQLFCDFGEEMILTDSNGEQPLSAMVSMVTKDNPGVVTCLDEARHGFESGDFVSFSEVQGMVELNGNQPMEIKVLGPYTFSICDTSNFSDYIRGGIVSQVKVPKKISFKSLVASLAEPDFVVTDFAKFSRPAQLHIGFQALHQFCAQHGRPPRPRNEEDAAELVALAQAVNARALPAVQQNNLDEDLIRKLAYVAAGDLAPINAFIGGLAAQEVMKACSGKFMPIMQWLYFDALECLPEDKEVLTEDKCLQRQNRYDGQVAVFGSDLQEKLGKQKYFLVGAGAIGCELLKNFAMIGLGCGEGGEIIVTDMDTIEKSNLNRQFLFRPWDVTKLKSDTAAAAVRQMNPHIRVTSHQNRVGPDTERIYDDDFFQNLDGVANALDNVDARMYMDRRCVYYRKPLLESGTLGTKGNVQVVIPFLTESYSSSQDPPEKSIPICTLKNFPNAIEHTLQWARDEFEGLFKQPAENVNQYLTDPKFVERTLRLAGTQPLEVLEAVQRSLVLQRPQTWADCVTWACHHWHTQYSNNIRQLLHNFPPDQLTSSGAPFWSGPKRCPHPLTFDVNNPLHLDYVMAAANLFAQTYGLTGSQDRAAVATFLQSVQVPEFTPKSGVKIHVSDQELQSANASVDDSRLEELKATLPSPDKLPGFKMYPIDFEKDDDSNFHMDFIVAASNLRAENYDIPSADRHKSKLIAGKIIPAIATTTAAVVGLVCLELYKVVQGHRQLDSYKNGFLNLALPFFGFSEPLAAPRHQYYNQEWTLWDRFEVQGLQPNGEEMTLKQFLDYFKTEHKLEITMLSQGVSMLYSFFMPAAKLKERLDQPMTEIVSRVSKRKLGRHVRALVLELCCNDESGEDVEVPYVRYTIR

C#Cc1ccc(OCc2ccc(S(=O)(=O)N(C)C#C)cc2)cc1
Activity [1]: Active

C#Cc1cccc(Oc2ncnc3ccc(OCc4ccc(S(=O)(=O)N(C)C#C)cc4)cc23)c1
Activity [1]: Active | pIC50 [2]: 5.25 | pIC50 [3]: 5.77 | pIC50 [4]: 5.19 | pIC50 [5]: 5.72 | pIC50 [6]: 5.12 | Activity [7]: Active | Activity [8]: Active | Activity [9]: Active | inhibition [10]: Active | inhibition [11]: Active | inhibition [12]: Active | inhibition [13]: Active | Activity [14]: Active | Activity [15]: Active | Activity [16]: Active | Activity [17]: Active | inhibition at 10 µM [18]: 100%

C#Cc1cccc(Oc2ncnc3ccc(OCc4ccc(S(=O)(=O)NC)cc4)cc23)c1
pIC50 [5]: 5.11 | pIC50 [6]: < 4.30

C#Cc1ccc(S(=O)(=O)N(C)C#C)cc1
Stability [19]: Stable | Activity [20]: Active | Activity [1]: Active | Activity [21]: Active | Activity [22]: Active | Activity [23]: Active | Activity [24]: Active | Activity [25]: Active | Activity [26]: Active | Activity [27]: Active | Activity [28]: Active | Activity [29]: Active | Activity [30]: Active | Activity [31]: Active | inhibition [32]: Active
